Laboratory results reported in patent US20060293317A1, “Use of non-steroidal progesterone receptor modulators” (priority 2005, published 2006).

Target: T1, PR-B progesterone receptor (Homo sapiens, UniProt P06401)
T1 sequence (P06401 1-933): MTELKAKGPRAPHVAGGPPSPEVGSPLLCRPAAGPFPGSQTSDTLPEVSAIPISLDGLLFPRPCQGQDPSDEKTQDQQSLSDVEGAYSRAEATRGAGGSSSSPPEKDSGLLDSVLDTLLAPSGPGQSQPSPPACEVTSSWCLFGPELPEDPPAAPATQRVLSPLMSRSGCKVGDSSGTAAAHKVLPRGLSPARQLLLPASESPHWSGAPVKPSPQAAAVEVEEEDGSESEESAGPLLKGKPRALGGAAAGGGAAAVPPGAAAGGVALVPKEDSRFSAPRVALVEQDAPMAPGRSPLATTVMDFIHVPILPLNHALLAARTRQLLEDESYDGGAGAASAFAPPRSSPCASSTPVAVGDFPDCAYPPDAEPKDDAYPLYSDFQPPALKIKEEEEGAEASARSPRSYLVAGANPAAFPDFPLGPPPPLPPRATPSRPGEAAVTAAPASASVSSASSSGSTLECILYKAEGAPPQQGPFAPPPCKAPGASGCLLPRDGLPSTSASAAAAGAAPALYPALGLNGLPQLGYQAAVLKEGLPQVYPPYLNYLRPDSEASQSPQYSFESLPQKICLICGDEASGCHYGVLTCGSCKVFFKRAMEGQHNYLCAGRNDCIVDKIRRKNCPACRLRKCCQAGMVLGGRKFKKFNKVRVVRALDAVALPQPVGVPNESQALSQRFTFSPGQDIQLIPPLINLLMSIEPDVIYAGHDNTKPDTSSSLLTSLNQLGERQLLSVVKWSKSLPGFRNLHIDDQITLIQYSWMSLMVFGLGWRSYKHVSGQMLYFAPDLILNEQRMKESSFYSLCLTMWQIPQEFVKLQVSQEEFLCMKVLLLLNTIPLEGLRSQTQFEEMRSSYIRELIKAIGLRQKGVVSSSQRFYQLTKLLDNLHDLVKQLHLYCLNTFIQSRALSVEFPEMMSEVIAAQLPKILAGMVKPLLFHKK
Test: Antagonism at the PR-B progesterone receptor (transactivation assay)
Format: cell-based
Procedure: Antagonism at the PR-B Progesterone Receptor
The transactivation assay is carried out as described in WO 02/054064.

Antagonistic activity Efficacy (transactivation assay as in WO 02/054064): 100%
IC50 (transactivation assay as in WO 02/054064, read-out: Antagonistic activity IC50): 0.3 nM
SMILES: Cc1noc(=O)c2ccc(NC(=O)C(O)(Cc3ccccc3)CC(C)(C)c3ccccc3)cc12 (centres unmarked) [compound 88]
